Measurements: patent US6803186B2, “Compositions and methods for increasing amino acid absorption in mammals” (The IAMS Company, priority 2001, dated 2004)
pKi: −log10 of the molar value.

Legend:
canine PepT1 (cPepT1) [1] = biological target: T1, canine PepT1 (cPepT1) (Canis lupus familiaris, UniProt Q8WMX5); assay: Inhibition of H+-dependent 100 μM GlySar uptake by MDCK cells cultured in LHM; format: cell-based; details: 100 μM GlySar
T1 construct: endogenous in cells; host or cells: MDCK (Madin-Darby Canine Kidney) cells, whole-cell [3H]-GlySar uptake
T1 sequence (Q8WMX5 1-708): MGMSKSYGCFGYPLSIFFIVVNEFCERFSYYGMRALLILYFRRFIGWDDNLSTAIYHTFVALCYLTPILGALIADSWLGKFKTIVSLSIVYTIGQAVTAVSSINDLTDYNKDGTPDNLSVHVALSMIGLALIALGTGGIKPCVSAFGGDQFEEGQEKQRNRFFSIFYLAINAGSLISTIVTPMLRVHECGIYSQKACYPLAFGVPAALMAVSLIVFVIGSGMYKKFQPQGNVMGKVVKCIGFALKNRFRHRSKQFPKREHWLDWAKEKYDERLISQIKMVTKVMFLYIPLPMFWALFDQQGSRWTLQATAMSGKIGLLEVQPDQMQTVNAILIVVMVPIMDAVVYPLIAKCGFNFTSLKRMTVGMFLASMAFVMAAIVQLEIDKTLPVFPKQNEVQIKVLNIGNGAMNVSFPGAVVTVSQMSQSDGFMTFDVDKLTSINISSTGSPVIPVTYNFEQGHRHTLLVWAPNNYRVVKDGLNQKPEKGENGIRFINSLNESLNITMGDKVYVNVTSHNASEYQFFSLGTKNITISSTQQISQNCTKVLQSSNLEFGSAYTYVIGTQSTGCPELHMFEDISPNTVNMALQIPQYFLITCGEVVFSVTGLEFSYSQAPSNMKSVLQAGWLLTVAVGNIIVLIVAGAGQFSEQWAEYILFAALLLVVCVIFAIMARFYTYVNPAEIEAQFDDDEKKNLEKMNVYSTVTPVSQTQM
Experimental: Characteristic hallmarks of low affinity H^+/peptide cotransport activity, classically defined using membrane vesicles of several species, and more recently by functional expression studies using human, rat, and rabbit PepT1 cDNA, is the recognition of some, but not all, β-lactam antibiotics. […] To determine whether MDCK cPepT1 activity shared these functional features, the uptake of 100 μM GlySar in the absence and presence of pH 7.5 and pH 6.0 buffer, and, in pH 6.0 buffers, the presence of 1 mM additional GlySar (self-inhibitor control), 3 mM Penicillin-G, 30 μM cefadroxil, or 3 mM cefadroxil was compared (FIG. 13).
Other hallmarks of PepT1 function are the decreased ability of Gly-containing peptides to inhibit GlySar, in proportion to their length, and sensitivity to inhibition by carnosine (β-Ala-His).
Accordingly, the following general regimen was used to perform a series of experiments that evaluated the relative abilities of candidate di-(primarily) and tri-peptides to inhibit GlySar uptake by endogenously expressed cPepT1 in MDCK cells:
1. Sixty thousand cells/well were plated into collagen-coated 24-well trays and cultured at 37° C. in an atmosphere of 95% air/5% CO2 in DMEM/10% FCS that contained antibiotics for 1 day.
2. The media was removed and cells were cultured in LHM/10% FCS/antibiotics for 1 day.
3. The media was removed and cells cultured in LHM/10% FCS (no antibiotics) for 20 h.
4. The media was removed and cells cultured for 30 min in air at 37° C. in depletion medium (25 mM Hepes/Tris (pH 7.5), 140 mM NaCl, 5.4 mM KCl, 1.8 mM CaCl2, 0.8 mM MgSO4, and 5 mM glucose, to normalize intracellular nutrient pools.
5. Transport was initiated by replacing depletion medium with uptake medium (depletion medium adjusted to pH 6.0 or kept at pH 7.4) that contained 100 μM GlySar (at a specific activity of 5 μCi/mL, with [^3H]-GlySar supplying 2.88% of total GlySar substrate) and (or) 1 mM of inhibiting peptide.
In total, 23 inhibitory peptides and 2 drug compounds were screened using this protocol.

canine PepT1 (cPepT1) [2] = biological target: T1, canine PepT1 (cPepT1); assay: Substrate regulation of H+-dependent GlySar uptake capacity of MDCK cells cultured in DMEM (Example 3, Trials 1 and 2); format: cell-based; details: 10 mM in DMEM
Experimental: All cells were plated (60,000/2 cm^2 well) and cultured (95% air/5% CO2, 37° C.) for 24 h in Dulbecco's Modified Eagle Media/10% fetal calf serum (FCS)/1%Antibiotic/Antimicrobial solution (ABAM) (DMEM media). Following these initial common culture conditions, cells then were cultured in DMEM, or DMEM that contained 10 mM of Camosine, GlyPhe, Phe, or Gly. Media were changed every 24 h. Media treatments (n=8) were as follows:
The measurement of [^3H]Glysarcosine uptake was performed by using a 24-well cluster tray method (Kilberg M S. Measurement of amino acid transport by hepatocytes in suspension and monolayer culture. Methods Enzym 1989; 173:564-575. Matthews J C, Aslanian A, McDonald K K, Yang W, Malandro M S, Novak D A, Kilberg M S. An expression system for mammalian amino acid transport using a stably maintained episomal vector. Anal Biochem 1997; 254:208-214), and used in Examples 1 and 2. Cells were cultured for 30 min in air at 37° C. in depletion medium (25 mM Hepes/Tris (pH 7.5), 140 mM NaCl, 5.4 mM KCl, 1.8 mM CaCl2, 0.8 mM MgSO4, and 5 mM glucose), to normalize intracellular nutrient pools before transport. The transport assays are initiated by replacing depletion medium with uptake medium (Depletion medium adjusted to pH 6.0) that contained 100 μM GlySar (5 μCi/mL, with [^3H]-GlySar supplying 2.88% of total GlySar). After a 30 minute incubation period, transport was terminated with four rinses of 4° C. depletion medium (pH 7.5). Two hundred and twenty μL of 10% trichloroacetic acid was added to each well, and the radioactivity of the supernatant quantified by liquid scintillation counting. The cells of each well are solubilized in 0.2 N NaOH/0.2% SDS and the protein quantified by using the modified Lowry assay, using bovine serum as a standard. Id. Peptide uptake will be reported as pmol* mg^−1 protein* 30 min^−1. Uptake measurements were taken after 24, 48, and 72 hours of culture in treatment media.
The MDCK cell line was maintained as described previously in the Methods section of Trial 1. […]

PepT2 = biological target: T2, PepT2 (Homo sapiens, UniProt Q16348); details: read-out: Ki of cefadroxil inhibition of PepT2 transport of GlySar; cited from earlier work
T2 sequence (Q16348 1-729): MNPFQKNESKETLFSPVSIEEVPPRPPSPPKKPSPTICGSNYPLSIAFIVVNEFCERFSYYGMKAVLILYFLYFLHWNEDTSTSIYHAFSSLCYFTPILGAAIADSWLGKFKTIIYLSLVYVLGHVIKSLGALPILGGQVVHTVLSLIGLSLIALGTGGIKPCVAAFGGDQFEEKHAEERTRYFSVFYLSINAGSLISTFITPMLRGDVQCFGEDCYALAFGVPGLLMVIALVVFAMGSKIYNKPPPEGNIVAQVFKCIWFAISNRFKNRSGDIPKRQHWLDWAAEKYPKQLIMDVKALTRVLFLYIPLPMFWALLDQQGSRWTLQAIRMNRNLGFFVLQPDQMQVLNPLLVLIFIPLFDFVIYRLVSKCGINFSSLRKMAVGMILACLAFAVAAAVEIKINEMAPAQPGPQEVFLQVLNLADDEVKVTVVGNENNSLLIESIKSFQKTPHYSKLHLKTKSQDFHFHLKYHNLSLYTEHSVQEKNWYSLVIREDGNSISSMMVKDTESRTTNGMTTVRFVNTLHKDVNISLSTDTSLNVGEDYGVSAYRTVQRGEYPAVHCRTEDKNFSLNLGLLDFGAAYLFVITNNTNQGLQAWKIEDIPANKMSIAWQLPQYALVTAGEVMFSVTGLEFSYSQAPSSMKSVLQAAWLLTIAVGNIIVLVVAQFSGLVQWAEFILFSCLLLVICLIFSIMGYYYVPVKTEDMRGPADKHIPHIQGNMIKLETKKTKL

PepT1 = biological target: T3, PepT1 (Homo sapiens, UniProt P46059); details: read-out: Ki of cefadroxil inhibition of GlySar uptake by PepT1; cited from earlier work
T3 sequence (P46059 1-708): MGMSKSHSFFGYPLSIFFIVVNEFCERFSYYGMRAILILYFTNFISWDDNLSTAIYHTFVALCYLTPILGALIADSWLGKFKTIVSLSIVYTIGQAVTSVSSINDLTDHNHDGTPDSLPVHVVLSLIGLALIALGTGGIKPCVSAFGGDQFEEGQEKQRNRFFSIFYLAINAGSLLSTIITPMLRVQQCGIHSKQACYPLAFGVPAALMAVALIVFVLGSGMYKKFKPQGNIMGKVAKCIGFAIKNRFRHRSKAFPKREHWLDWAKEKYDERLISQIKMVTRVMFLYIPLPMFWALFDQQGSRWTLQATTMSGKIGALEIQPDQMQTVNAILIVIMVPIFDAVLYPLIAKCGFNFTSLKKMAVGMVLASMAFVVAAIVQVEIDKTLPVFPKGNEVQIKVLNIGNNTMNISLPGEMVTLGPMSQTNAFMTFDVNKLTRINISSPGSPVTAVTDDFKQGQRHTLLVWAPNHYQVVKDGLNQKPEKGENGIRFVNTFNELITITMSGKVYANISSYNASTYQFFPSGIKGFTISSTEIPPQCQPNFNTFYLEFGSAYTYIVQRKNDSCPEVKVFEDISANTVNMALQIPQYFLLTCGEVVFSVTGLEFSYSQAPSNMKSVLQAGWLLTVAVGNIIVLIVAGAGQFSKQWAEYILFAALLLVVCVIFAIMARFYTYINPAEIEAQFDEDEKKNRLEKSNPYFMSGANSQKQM

canine PepT1 (cPepT1) [3] = assay: Influence of dexamethasone, insulin and IGF-I on H+-dependent GlySar uptake by MDCK cells (Trials 3A, 3B); format: cell-based; details: for effect on H+-dependent GlySar uptake capacity: 5 or 500 nM in DMEM, 4 h of culture
Experimental: MDCK cells were maintained as described in Trial 1, except that cells were cultured for only 1 d before transport trials were performed. Following initial and common culture conditions, cells were cultured in a “nutrient depleted” buffer (Hepes/Tris (pH 7.5),140 mM NaCl, 5.4 mM KCl, 1.8 mM CaCl2, 0.8 mM MgSO4) that contained 5 mM glucose as an energy source, but that lacked amino acid or vitamin sources. In contrast, cells cultured in DMEM, or DMEM that contained 5 nM Dex, 500 nM Dex, 5 nM insulin, or 500 nM insulin, were adequately nourished. Media treatments (n=4) were as follows:
The measurement of [^3H]Glysarcosine uptake was performed by using the 24-well cluster tray method as previously described in the Methods section of Trial 1. Peptide uptake is reported as pmol* mg^−1 protein*30 min^−1. Uptake measurements were taken after 30 min and 4 h of culture in treatment media.
Trial 3B was conducted in the same manner as described for Trail 3A, except that cells were cultured in DMEM or DMEM that contained 1 nM IGF-1, 5 nM IGF-1, 25 nM IGF-1, or 100 nM IGF-1. Uptake measurements were taken after 30 min and 4 h of culture time.

NCCC(=O)N[C@@H](Cc1cnc[nH]1)C(=O)O [Carnosine, Carnosine (β-AlaHis)]
% inhibition of H+-dependent GlySar uptake (canine PepT1 (cPepT1) [1]; 1 mM extracellular substrate, pH 6.0, 30 min): 50% | increase of GlySar uptake capacity over DMEM-cultured cells (canine PepT1 (cPepT1) [2]; 72 h of culture): 23% | increase of GlySar uptake capacity over DMEM-cultured cells (canine PepT1 (cPepT1) [2]; 216 h of culture): 291%

CC1=C(C(=O)O)N2C(=O)[C@@H](NC(=O)[C@H](N)c3ccc(O)cc3)[C@H]2SC1 [Cefadroxil]
pKi (PepT2): 4.52 | pKi (PepT1): 2.52 | % inhibition of H+-dependent GlySar uptake (canine PepT1 (cPepT1) [1]; 30 μM cefadroxil): not inhibited | inhibition at 30 µM (canine PepT1 (cPepT1) [1]; MDCK, 30 μM cefadroxil): 0% | inhibition at 3000 µM (canine PepT1 (cPepT1) [1]; MDCK, 3 mM cefadroxil): ~76%

C[C@@H]1C[C@H]2[C@@H]3CCC4=CC(=O)C=C[C@]4(C)[C@@]3(F)[C@@H](O)C[C@]2(C)[C@@]1(O)C(=O)CO [dexamethasone]
effect on H+-dependent GlySar uptake capacity (canine PepT1 (cPepT1) [3]): no effect

IGF-I: Insulin-like Growth factor I
stimulation of H+-dependent GlySar uptake (canine PepT1 (cPepT1) [3]; increasing amounts of IGF-I (1 to 100 nM) in DMEM): no significant stimulation

insulin: insulin (negative control)
effect on H+-dependent GlySar uptake capacity (canine PepT1 (cPepT1) [3]): no effect
